For the assay, the system named is Pistacia atlantica x P. intergerrina plants. In words: In vitro initiation and multiplication of pistachio on solid medium. Type of assay: cell-based. The method, then: Fully developed pistachio plants were cut into single-node explants, shoot tips, basal (bottom) parts of plants with multiple buds, and cultured on different agar-solidified culture media under standard tissue culture conditions (16 h light photoperiod, cool white fluorescent lights at 80-100 μmol/m^2/s light intensity, 24° C.).
Culture vessels (baby food jars) with ventilated lids are used in all experiments: 1-3 explants per 1 vessel, 12 vessels per each experimental medium, 40 ml of medium in each vessel. The explants are subcultured every 30 days, photographed every week, and observed daily.
The culture media differed in composition of major macronutrients (e.g., MS vs. WPM vs. DKW), individual elements (calcium, magnesium, phosphorus, zinc copper, boron, etc.), as well as in type and concentration of plant growth regulators (PGRs).
The compositions of these media are presented in FIG. 38, and their key advantages are based on data presented below.
Because the type and dosage of PGRs are usually the key factors controlling the morphogenetic response of plant cells in vitro, the main work was focused on testing various concentrations of cytokinins or cytokinin-like compounds (TDZ, 2iP, BA, meta-Topolin, ZR), alone or in combination with auxins (NAA, IAA, IBA), to induce organogenesis and high frequency multiplication in Pistacia atlantica x P. intergerrina. In the absence of PGRs (i.e., on hormone-free media), the plant growth was very poor and the culture gradually died within several weeks. In contrast, the culture media with 1-3 mg/l meta-Topolin, alone or in combination with 0.02-1 mg/l NAA or IBA, provided the highest rate of shoot organogenesis with the fastest response: each explant formed multiple meristematic buds, and the first axillary shoots appeared as early as 3 days after the explants were placed on the media. […] The multiplication rate of pistachio plants cultured on BOO3, BOO6, BOO4, and BOO7 media was 2-7 times every 30 days. […]

Setting [1] is: 1-3 mg/l meta-Topolin, alone or in combination with 0.02-1 mg/l NAA or IBA.

Molecules are shown by their SMILES.

The source of these data is patent publication US20200383331A1, “COMPOSITIONS AND METHODS FOR LARGE-SCALE IN VITRO PLANT BIOCULTURE” (BOOSHOOT, LLC, priority 2017, published 2020).

Take `C=C1C[C@]23C[C@@]1(O)CC[C@H]2[C@@]12C=C[C@H](O)[C@@](C)(C(=O)O1)[C@H]2[C@@H]3C(=O)O` [GA3, gibberellic acid]: the “shoot development from dormant buds of plant bases” value (2 mg/l of GA3 added into the media) is recorded as “induced shoot development”. Take `Oc1cccc(CNc2ncnc3[nH]cnc23)c1` [meta-Topolin, 6-(3-hydroxybenzylamino)-purine]: under setting [1], the “first axillary shoots appeared after the explants were placed on the media” value is on record as at least 3 days and the “rate of shoot organogenesis” value was “highest”.
